Key:
[1] = Lithium levels in mouse serum after oral LiCl; assay type: in vivo; settings: oral LiCl 300 mg/liter in tap water, Lgr5-CreErt2;Rosa26mTmG mice
Experimental: (§1) Lgr5-EGFP-IRES-Cre^ERT2 Villin-Cre^ERT2, Rosa26mTmG, Apc^fl/fl and Kras^G12D mice have been described earlier^30-34. All in vivo experiments were approved by the animal experimentation committee at the Amsterdam UMC—location Academic Medical Center in Amsterdam under nationally registered licence number AVD1180020172125 and performed according to national guidelines. Mice were housed in a 12 hour light/12 hour dark cycle, with temperatures between 20-24° C. and 40-70% humidity. For short term assays, both male and female mice were used. For long term assays, only females were used to prevent the risk of preliminary dropout due to fighting male mice. All mice were between 6-12 weeks old at the start of the experiments. For all mouse experiments, sufficient sample sizes were determined based on previous studies with a similar study design^3,35. Experimental animals were randomly assigned to the control or lithium treated groups, clone sizes and adenoma counts were scored blindly. […] Mouse discomfort during tumour formation assays was closely monitored, and endpoints were determined as <15% weight loss within 2 days or a mouse grimace scale (MGS) score<3. […] After 60 days, intestines were removed and polyps were counted macroscopically.

WT organoids = test: Murine WT intestinal organoids incubated with conditioned medium or recombinant Wnt antagonists (expansion, clonogenicity); assay type: cell-based, mouse; settings: WT organoids, Apc-/- CM, 5 mM LiCl
Experimental: Murine intestinal crypts were isolated from Lgr5-EGFP-IRES-Cre^ERT2, Lgr5-EGFP-IRES-Cre^ERT2;Ape/or Villin-Cre^ERT2;Apc^fl/fl mice as described by Sato et al.^35. In short, intestines were removed from the mouse and washed thoroughly with ice-cold PBS. Next, the intestine was opened longitudinally and the villi were gently scraped off by a glass cover slide. The intestine was cut into pieces of 5×5 mm and incubated in 2 mM EDTA solution for 30 min. at 4° C. After removal of the EDTA, the crypts were resuspended in ice-cold 1% FCS in PBS by vigorously shaking the tube and passing the supernatant through a 70 µm strainer. Isolated crypts were resuspended in Matrigel® (Corning) and seeded in pre-heated 24-well plates, supplemented with basal organoid medium consisting of advanced DMEM/F12 medium (Gibco) containing 100× N2 and 50× B27 supplements, 100× Glutamax, 5 mM HEPES, 1 mM N-acetyl-L-cysteine (Sigma), and 100× antibiotic/antimycotic (all Gibco). The basal organoid medium was freshly supplemented with the following growth factors: mouse EGF 50 ng/ml (TEBU-BIO), R-spondin (conditioned medium), Noggin (conditioned medium). The first two days after crypt isolation CHIR99021 (Axon Medchem) and ROCK inhibitor (Sigma) was added to the medium. Ctnnb1^S organoids expressing a constitutive active variant of β-catenin were generated as described by Adam et al.^36. For in vitro recombination of loxP flanked alleles, 1 μM 40H-Tamoxifen (Sigma) was added to the medium. Recombination of the Apc gene was validated by digital droplet PCR (Bio-Rad) using EvaGreen® Supermix (Bio-Rad). Lgr5-EGFP-IRES-Cre^ERT2 organoids, referred to as wild type (WT) organoids, were stably transduced with a red fluorescent mCherry construct (LeGO-C2, Addgene #27399). The in vitro recombined Lgr5-EGFP-IRES-Cre^ERT2;Apc^fl/fl, referred to as Apc^−/−, were stably transduced with a green fluorescent Venus construct (LeGO-V2, Addgene #27340). During competition assays, organoids were plated in equal numbers in 24-well plates and full wells were scanned over time by the EVOS FL Cell Imaging System (Thermo Scientific). Conditioned medium (CM) was taken from 2-3 day old WT or Apc^−/− organoid cultures and freshly supplemented with growth factors R-spondin, Noggin and mEGF. During the competition assays the medium (normal and conditioned) was replaced every other day to minimize effects of medium depletion. To assess the effect of medium depletion, CM was 10× concentrated using 10 kDa Amicon® centrifugal filters (Millipore) and added to fresh ENR medium as 1:10. […] Recombinant proteins NOTUM (2 μg/mL, R&D, 9150-NO-050), WIF1 (5 μg/mL, R&D, 135-WF-050) and DKK2 (1 μg/mL, R&D, 2435-DKB-010) were freshly added to the culture medium, medium was refreshed every other day.

KrasG12D-mutant clones = test: KrasG12D clone dynamics in vivo with or without LiCl; set-up: species or system mouse; settings: Lgr5-CreErt2;Rosa26mTmG;KrasG12D mice
Experimental: as §1, with “All mice were between 6-12 weeks old at the start of the experiments.” left out
After the mice were sacrificed, intestines were removed fully and washed thoroughly with ice-cold PBS. […] For all crypt analyses, clone sizes were quantified as proportions of the crypt circumference (in eights, 1:8-8:8). […]

[Cl-].[Li+] [LiCl, lithium chloride]
Serum concentrations (Li+), tolerability [1]: well-tolerated serum concentrations | Resistance to Apc-/- CM induced reduction in proliferation and clonogenicity (WT organoids): resistant to the Apc^−/− CM induced reduction in proliferation and clonogenicity | KrasG12D clone dynamics (KrasG12D-mutant clones): remained unaffected
